Measurements published in patent US20080280933A1, “BENZIMIDAZOLYL COMPOUNDS” (priority 2006, published 2008).

These compounds were tested against T1, mGluR2 receptor (metabotropic glutamate receptor 2) (Homo sapiens, UniProt Q14416) (assay: mGluR2 Potentiator Screen, FLIPR, EC10-EC20 glutamate challenge). Conditions: listed as 11; read-out: EC50.
T1 construct: expressed in transfected cells
Format: cell-based
Procedure, shortened: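 HEK cells stably co-expressing mGluR2 and Gα15, kept glutamine-free overnight, were loaded with Fluo-4 plus probenecid and GPT/pyruvate. Compounds (top 10 μM) were added ≥30 min before an EC10–EC20 glutamate challenge. Peak FLIPR fluorescence ratios were curve-fitted, excluding points above maximal effect, with maxima from on-plate standards.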

T1 sequence (Q14416 19-872, species assumed): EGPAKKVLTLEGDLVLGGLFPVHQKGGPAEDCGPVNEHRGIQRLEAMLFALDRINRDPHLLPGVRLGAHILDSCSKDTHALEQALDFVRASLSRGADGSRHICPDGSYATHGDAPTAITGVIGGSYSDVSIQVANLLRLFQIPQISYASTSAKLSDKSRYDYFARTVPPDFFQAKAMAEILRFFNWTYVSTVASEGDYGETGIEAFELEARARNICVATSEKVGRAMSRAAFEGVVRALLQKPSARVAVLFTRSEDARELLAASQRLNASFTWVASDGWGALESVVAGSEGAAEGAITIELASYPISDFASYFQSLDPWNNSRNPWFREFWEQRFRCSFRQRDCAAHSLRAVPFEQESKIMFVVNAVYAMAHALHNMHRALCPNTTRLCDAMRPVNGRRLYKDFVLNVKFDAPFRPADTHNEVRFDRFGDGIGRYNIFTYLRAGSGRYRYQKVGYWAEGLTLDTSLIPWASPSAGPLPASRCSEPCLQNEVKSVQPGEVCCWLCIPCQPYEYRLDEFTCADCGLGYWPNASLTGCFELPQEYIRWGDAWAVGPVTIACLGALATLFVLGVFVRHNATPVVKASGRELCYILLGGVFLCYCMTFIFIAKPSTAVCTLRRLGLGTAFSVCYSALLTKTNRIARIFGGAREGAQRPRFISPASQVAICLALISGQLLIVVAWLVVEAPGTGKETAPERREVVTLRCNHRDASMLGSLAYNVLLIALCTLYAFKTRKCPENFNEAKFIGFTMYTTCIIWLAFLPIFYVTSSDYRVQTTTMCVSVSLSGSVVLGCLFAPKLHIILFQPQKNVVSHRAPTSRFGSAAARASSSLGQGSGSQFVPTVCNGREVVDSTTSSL

| Compound | EC50 |
| --- | --- |
| Methyl 2-((4-(2-methoxyphenyl)piperidin-1-yl)methyl)-1-methyl-1H-benzo[d]imidazole-5-carboxylate [Entry 296] | 3640 nM |

Same assay, conditions: mGluR2 potentiator screen, Table 7; read-out: EC50

| Compound | EC50 |
| --- | --- |
| COc1ccccc1C1CCN(Cc2nc3c(Br)cccc3n2C)CC1 [compound 169] | 1230 nM |
| CCCOc1ccc(Cl)cc1C1CCN(Cc2nc3ccccc3n2CCOC)CC1 [compound 223] | 233 nM |
| FCCn1c(CN2CCC(c3cc(Cl)ccc3OCCC3CC3)CC2)nc2ccccc21 [compound 190] | 141 nM |
| COC(=O)[C@H]1CN(Cc2nc3ccccc3n2C)C[C@@H]1c1ccc(Cl)cc1 [compound 156] | 8550 nM |
| Cn1c(CN2CCC(c3cc(Cl)ccc3OCC3CCCCO3)CC2)nc2ccccc21 (centres unmarked) [compound 216] | 534 nM |
| CC[C@H](C)COc1ccc(Cl)cc1C1CCN(Cc2nc3ccccc3n2C)CC1 [compound 174] | 447 nM |
| Cn1c(CN2CCC(c3cc(Cl)ccc3OCC3CCCO3)CC2)nc2ccccc21 (centres unmarked) [compound 207] | 666 nM |
| CCCCOc1ccc(Cl)cc1C1CCN(Cc2nc3ccccc3n2C2CC2)CC1 [compound 183] | 1520 nM |
| CC[C@H](C)COc1ccc(Cl)cc1C1CCN(Cc2nc3ccccc3n2CF)CC1 [compound 175] | 8760 nM |
| Cn1c(CN2CCC(c3cc(Cl)ccc3OCCC3CC3)CC2)nc2ccccc21 [compound 189] | 153 nM |
| CC(C)COc1ccc(Cl)cc1C1CCN(Cc2nc3ccccc3n2CF)CC1 [compound 177] | 3470 nM |
| CC(C)COc1ccc(Cl)cc1C1CCN(Cc2nc3ccccc3n2CCF)CC1 [compound 181] | 2110 nM |
| FCn1c(CN2CCC(c3cc(Cl)ccc3OCC3CCOC3)CC2)nc2ccccc21 (centres unmarked) [compound 204] | 3610 nM |

Same assay, conditions: read-out: EC50

| Compound | EC50 |
| --- | --- |
| CC1CN(Cc2nc3ccccc3n2C)CCC1c1ccc(OC(F)(F)F)cc1F (centres unmarked) [compound 474] | 76.7 nM |
| Cn1c(CN2CCC(c3ccc(F)cc3F)CC2)nc2ccccc21 [compound 422] | 14.6 nM |
| COc1cccc(C2CCN(Cc3nc4cc(Cl)ccc4n3C)CC2)c1 [compound 385] | 2760 nM |
| Cc1ccc2c(c1)C1(CCN(Cc3nc4ccccc4n3C)CC1)CN2C(=O)c1ccoc1 [compound 29] | 2430 nM |
| Cc1cc(Cl)ccc1[C@H]1CCN(Cc2nc3ccccc3n2C)C[C@H]1C (relative stereo) [compound 469] | > 351 nM |
| COc1ccccc1C1CCN(Cc2nc3c(C#N)cccc3n2C)CC1 [compound 266] | 3350 nM |
| Cn1c(CN2CCC(c3ccc(C(F)(F)F)cc3F)CC2)nc2c(F)cccc21 [compound 398] | 40.2 nM |
| Cn1c(CN2CCC(c3cccc(C(F)(F)F)c3)CC2)nc2cc(F)ccc21 [compound 374] | 245 nM |
| C#CCOc1ccc(Cl)cc1C1CCN(Cc2nc3ccccc3n2C2CC2)CC1 [compound 235] | 258 nM |
| CC(C)Oc1ccccc1C1CCN(Cc2nc3ccccc3n2C)CC1 [compound 78] | 475 nM |
| Cn1c(CN2CCC(c3ccc(F)c(Cl)c3)CC2)nc2ccccc21 [compound 443] | 57 nM |
| COc1ccccc1[C@H]1CCN(Cc2nc3ccccc3n2C2CC2)C[C@H]1C (relative stereo) [compound 338] | 1450 nM |
| Cn1c(CN2CCC(c3ccc(F)cc3F)CC2)nc2cc(C#N)ccc21 [compound 427] | 140 nM |
| Methyl 2-((4-(2-methoxyphenyl)piperidin-1-yl)methyl)-1-methyl-1H-benzo[d]imidazole-5-carboxylate [Entry 296] | 414 nM |
| Cc1ccc(C2CCN(Cc3nc4ccccc4n3C)CC2)cc1C [compound 315] | 308 nM |
| C[C@@H]1CN(Cc2nc3ccccc3n2C)CC[C@@H]1c1ccccc1F (relative stereo) [compound 405] | 124 nM |
| COc1ccc(Cl)cc1C1CCN(Cc2nc3ccccc3n2CF)CC1 [compound 232] | 396 nM |
| Cn1c(CN2CCC(c3cc(Cl)ccc3F)CC2)nc2cc(Cl)ccc21 [compound 380] | 1730 nM |
| CCCN1CC2(CCN(Cc3nc4ccccc4n3C)CC2)c2cc(C)cc(C)c21 [compound 145] | 2690 nM |
| Cn1c(CN2CCC3(CC2)CN(C(=O)c2ccoc2)c2ccccc23)nc2ccccc21 [compound 50] | 4930 nM |
| CC(C)C(=O)N1CC2(CCN(Cc3nc4ccccc4n3C)CC2)c2cc(F)ccc21 [compound 17] | 3310 nM |
| COc1ccc(C(F)(F)F)cc1C1CCN(Cc2nc3ccccc3n2CCF)CC1 [compound 319] | 1650 nM |
| CN1CC2(CCN(Cc3nc4ccccc4n3C)CC2)c2cc(Br)ccc21 [Entry 104, 5-Bromo-1-methyl-1'-[(1-methyl-1H-benzimidazole-2-yl)methyl]-1,2-dihydrospiro[indole-3,4'-piperidine]] | 1410 nM |
| Cn1c(CN2CCC(c3ccc(F)c(Cl)c3)CC2)nc2cccc(F)c21 [compound 444] | 131 nM |

| Compound | EC50 |
| --- | --- |
| CN1CC2(CCN(Cc3nc4ccccc4n3C)CC2)c2cc(F)ccc21 [compound 136] | 2650 nM |
| CCCC(=O)N1CC2(CCN(Cc3nc4ccccc4n3C)CC2)c2ccccc21 [compound 64] | 1410 nM |
| Cn1c(CN2CCC3(CC2)CN(CC2CC2)c2ccccc23)nc2ccccc21 [compound 134] | 7380 nM |
| COc1ccccc1C1CCN(Cc2nc3ccccc3n2C)CC1 [compound 47] | 77.1 nM |
| Cn1c(CN2CCC(c3ccccc3OC3CCOCC3)CC2)nc2ccccc21 [compound 99] | 2120 nM |
| Cc1ccc2c(c1)C1(CCN(Cc3nc4ccccc4n3C)CC1)CN2CC1CCCO1 (centres unmarked) [compound 124] | 4110 nM |
| CC(=O)N1CC2(CCN(Cc3nc4ccccc4n3C)CC2)c2cc(C)ccc21 [compound 22] | 3830 nM |
| Cn1c(CN2CCC(c3cccc(C#N)c3)CC2)nc2ccccc21 [compound 418] | 1610 nM |
| C[C@@H]1CN(Cc2nc3ccccc3n2C)CC[C@@H]1c1ccc(F)cc1F (relative stereo) [compound 463] | 40.7 nM |
| COc1cc(C(F)(F)F)ccc1C1CCN(Cc2nc3cc(F)c(F)cc3n2C)CC1 [compound 360] | 266 nM |
| Cn1c(CN2CCC(c3ccc(Cl)c(F)c3)CC2)nc2ccccc21 [compound 450] | 79 nM |
| Cn1c(CN2CCC(c3ccc(C(F)(F)F)cc3)CC2)nc2cc(F)c(F)cc21 [compound 260] | 422 nM |
| COC(=O)CCC(=O)N1CC2(CCN(Cc3nc4ccccc4n3C)CC2)c2cc(C)ccc21 [compound 34] | 3150 nM |
| Cn1c(CN2CCC3(CC2)CN(CC(C)(C)C)c2ccccc23)nc2ccccc21 [compound 111] | 10300 nM |
| CCc1ccc(C2CCN(Cc3nc4ccccc4n3C)CC2)cc1 [compound 426] | 89.2 nM |
| COc1ccccc1C1CCN(Cc2nc3ccccc3n2CF)CC1C (centres unmarked) [compound 294] | 734 nM |
| Cc1ccc2c(c1)C1(CCN(Cc3nc4ccccc4n3C)CC1)CN2C(=O)C1CC1 [compound 36] | 2330 nM |
| COc1cc(C(F)(F)F)ccc1C1CCN(Cc2nc3cc(F)ccc3n2C)CC1 [compound 349] | 34.9 nM |
| FCn1c(CN2CCC(c3ccccc3C(F)(F)F)CC2)nc2ccccc21 [compound 256] | 422 nM |
| Cn1c(CN2CCC(c3ccccc3OCCC3CC3)CC2)nc2ccccc21 [compound 92] | > 3270 nM |
| Cn1c(CN2CCC(c3cc(F)cc4c3OCCC4)CC2)nc2ccccc21 [compound 431] | 5340 nM |
| CCC(C)CN1CC2(CCN(Cc3nc4ccccc4n3C)CC2)c2ccccc21 (centres unmarked) [compound 133] | 6160 nM |
| FCCn1c(CN2CCC(c3ccccc3F)CC2)nc2ccccc21 [compound 241] | 217 nM |
| CN1CCC[C@H]1COc1ccccc1C1CCN(Cc2nc3ccccc3n2C)CC1 [compound 98] | > 4810 nM |
